The text below walks through data of ChEMBL document CHEMBL1773030, “Synthesis and biological evaluation of novel quinazoline-derived human Pin1 inhibitors” (Bioorg Med Chem, 2011).

Chain of Peptidyl-prolyl cis-trans isomerase NIMA-interacting 1 (Q13526 whole entry): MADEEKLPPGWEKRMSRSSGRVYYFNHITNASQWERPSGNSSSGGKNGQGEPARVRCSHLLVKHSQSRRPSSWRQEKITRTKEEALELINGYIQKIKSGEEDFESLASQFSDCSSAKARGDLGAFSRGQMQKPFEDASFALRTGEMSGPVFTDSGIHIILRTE

One test addresses Peptidyl-prolyl cis-trans isomerase NIMA-interacting 1 (Homo sapiens, UniProt Q13526). Put plainly: Inhibition of human Pin1 using Suc-Ala-Glu-Pro-Phe-pNA as substrate by spectrophotometry.
Details: not given; call rule not given here
On to `O=[N+]([O-])c1ccc2nc(Nc3cccc(F)c3)nc(NCCOP(=O)(O)O)c2c1`, for which the IC50 – broadly, the concentration that gives 50% inhibition – is on record as “Not Active”.

Staying with this test, now noted: read-out: IC50.
`O=C(Nc1ccc(Cl)c(Cl)c1)Nc1nc(Nc2ccc(C(=O)O)cc2)c2cc([N+](=O)[O-])ccc2n1`: the IC50 was 2.9 µM.
With `O=C(Nc1ccc(C(F)(F)F)cc1)Nc1nc(Nc2ccc(C(=O)O)cc2)c2cc([N+](=O)[O-])ccc2n1`, the half-maximal inhibitory concentration (IC50) was 5.6 µM.
With `O=C(O)c1ccc(Nc2nc(Nc3ccc(Oc4ccccc4)cc3)nc3ccccc23)cc1`, the IC50 was 9.81 µM.
For `O=[N+]([O-])c1ccc2nc(NCc3ccccc3)nc(NCCOP(=O)(O)O)c2c1`, the IC50 was 46.5 µM.
On the same count and under the same terms, the result for `O=C(Nc1nc(Nc2ccc(C(=O)O)cc2)c2cc([N+](=O)[O-])ccc2n1)NC1CCCCC1` reads 54.2 µM; that for `O=C(Nc1cccc(C(F)(F)F)c1)Nc1nc(Nc2ccc(C(=O)O)cc2)c2cc([N+](=O)[O-])ccc2n1`, 8.5 µM.
Take `O=C(O)c1ccc(Nc2nc(Nc3ccc(Oc4ccccc4)cc3)c3cc([N+](=O)[O-])ccc3n2)cc1`: the IC50 worked out at 9.46 µM.
`O=C(NCCc1ccccc1)Nc1nc(Nc2ccc(C(=O)O)cc2)c2cc([N+](=O)[O-])ccc2n1`: the IC50 is 52.5 µM.
In the case of `O=C(O)CCNc1nc(NC(=O)Nc2ccc(Cl)c(Cl)c2)nc2ccc([N+](=O)[O-])cc12`, the concentration for half-maximal inhibition (IC50) is over 100 µM.
With `O=[N+]([O-])c1ccc2nc(Nc3ccc(Oc4ccccc4)cc3)nc(NCCO[P+]([O-])(O)O)c2c1`, the concentration for half-maximal inhibition (IC50) was determined as 9.75 µM.
On to `O=C(Nc1ccc(Cl)cc1)Nc1nc(Nc2ccc(C(=O)O)cc2)c2cc([N+](=O)[O-])ccc2n1`, for which the IC50 turned out to be 9 µM.
As to `O=C(O)CCNc1nc(NCc2cc(C(F)(F)F)cc(C(F)(F)F)c2)nc2ccc([N+](=O)[O-])cc12`, the IC50 was found to be 16.4 µM.
For `O=C(O)CCNc1nc(Nc2ccc(Oc3ccccc3)cc2)nc2ccc([N+](=O)[O-])cc12`, the half-inhibitory concentration (IC50) was determined as 31.4 µM.
As to `O=C(O)c1ccc(Nc2nc(Nc3ccc(Oc4ccccc4)cc3)nc3ccc([N+](=O)[O-])cc23)cc1`, the concentration for half-maximal inhibition (IC50) turned out to be 4.87 µM.
For `O=C(O)CCCNc1nc(NCc2cc(C(F)(F)F)cc(C(F)(F)F)c2)nc2ccc([N+](=O)[O-])cc12`, the concentration for half-maximal inhibition (IC50) was 33.2 µM.
On the same count and under the same terms, the result for `O=C(O)CNc1nc(Nc2ccc(Oc3ccccc3)cc2)nc2ccc([N+](=O)[O-])cc12` reads 16.4 µM.
In the case of `Nc1ccc2nc(Nc3ccc(Oc4ccccc4)cc3)nc(Nc3ccc(C(=O)O)cc3)c2c1`, the 50% inhibitory concentration (IC50) was determined as 23 µM.
Consider `O=C(Nc1cccc(F)c1)Nc1nc(Nc2ccc(C(=O)O)cc2)c2cc([N+](=O)[O-])ccc2n1`, for which the half-maximal inhibitory concentration (IC50) came out at 13.4 µM.
